From ChEMBL document CHEMBL1201862, “PubChem BioAssay data set” (2004)
Blank lines part the entries; values can stand above or below the compound they belong to. Activity calls are given as the source filed them.

Experiments:
[1] = target: T1, Type-1 angiotensin II receptor (Homo sapiens, UniProt P30556); assay: AT1 receptor agonists, dose response, selectivity assay for APJ receptor agonist project, cell-based, uHTS hits (AID 488865); type: functional;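 note: beta-arrestin recruitment to AT1 measured by enzyme fragment complementation luminescence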
T1 sequence (P30556 whole entry): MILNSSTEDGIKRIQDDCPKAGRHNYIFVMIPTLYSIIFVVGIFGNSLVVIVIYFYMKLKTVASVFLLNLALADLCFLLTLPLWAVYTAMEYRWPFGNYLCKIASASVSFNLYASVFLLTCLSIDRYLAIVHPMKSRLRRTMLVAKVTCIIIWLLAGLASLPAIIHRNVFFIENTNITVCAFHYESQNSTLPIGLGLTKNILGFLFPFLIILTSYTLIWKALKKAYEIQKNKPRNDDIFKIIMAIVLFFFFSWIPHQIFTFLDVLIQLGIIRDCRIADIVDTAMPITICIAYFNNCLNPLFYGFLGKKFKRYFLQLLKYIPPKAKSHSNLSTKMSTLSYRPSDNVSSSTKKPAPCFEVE

Troponin, cardiac muscle = Troponin, cardiac muscle (Homo sapiens, UniProt P19429+P45379+P63316); assay: Fluorescence-based biochemical high throughput dose response assay for activators of the calcium sensitivity of cardiac Regulated Thin Filaments (RTF). [Related pubchem assays (depositor defined):AID493008, AID493018, AID504382, AID504383]; type: protein-complex assay
[2] = target: T2, Alkaline phosphatase, tissue-nonspecific isozyme (Homo sapiens, UniProt P05186); assay: TNAP enzyme activators, dose response, selectivity assay for human IAP activator project, biochemical, TNAP isozyme, human IAP uHTS hits (AID 488886); type: functional;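 note: potency of compounds raising TNAP activity as a selectivity check on IAP activators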
T2 sequence (P05186 whole entry): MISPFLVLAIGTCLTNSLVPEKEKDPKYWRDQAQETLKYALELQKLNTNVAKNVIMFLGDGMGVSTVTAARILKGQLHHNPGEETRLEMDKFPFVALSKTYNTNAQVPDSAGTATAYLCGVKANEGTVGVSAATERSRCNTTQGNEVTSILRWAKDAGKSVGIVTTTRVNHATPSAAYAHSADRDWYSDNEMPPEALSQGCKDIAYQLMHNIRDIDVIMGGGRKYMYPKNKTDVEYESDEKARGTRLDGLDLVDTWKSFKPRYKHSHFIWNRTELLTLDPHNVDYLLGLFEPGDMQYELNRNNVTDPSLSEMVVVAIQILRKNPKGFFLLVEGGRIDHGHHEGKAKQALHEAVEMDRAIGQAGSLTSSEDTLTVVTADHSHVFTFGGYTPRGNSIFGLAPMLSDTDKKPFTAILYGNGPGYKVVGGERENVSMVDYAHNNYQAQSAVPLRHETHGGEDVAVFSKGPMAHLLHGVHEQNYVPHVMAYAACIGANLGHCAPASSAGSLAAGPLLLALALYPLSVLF

[3] = target: T3, Intestinal-type alkaline phosphatase (Homo sapiens, UniProt P09923); assay: human IAP activators, dose response, biochemical, luminescent, uHTS hits, set 2 (AID 488817); type: functional;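 note: potency of activators that raise enzyme activity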
[4] = target: Intestinal-type alkaline phosphatase (Mus musculus, UniProt P24822); assay: PubChem AID 488875; type: functional
[5] = target: T3, Intestinal-type alkaline phosphatase; assay: human intestinal alkaline phosphatase activators, dose response, biochemical, luminescence, uHTS hits (AID 463120); type: functional

T3 sequence (P09923 whole entry): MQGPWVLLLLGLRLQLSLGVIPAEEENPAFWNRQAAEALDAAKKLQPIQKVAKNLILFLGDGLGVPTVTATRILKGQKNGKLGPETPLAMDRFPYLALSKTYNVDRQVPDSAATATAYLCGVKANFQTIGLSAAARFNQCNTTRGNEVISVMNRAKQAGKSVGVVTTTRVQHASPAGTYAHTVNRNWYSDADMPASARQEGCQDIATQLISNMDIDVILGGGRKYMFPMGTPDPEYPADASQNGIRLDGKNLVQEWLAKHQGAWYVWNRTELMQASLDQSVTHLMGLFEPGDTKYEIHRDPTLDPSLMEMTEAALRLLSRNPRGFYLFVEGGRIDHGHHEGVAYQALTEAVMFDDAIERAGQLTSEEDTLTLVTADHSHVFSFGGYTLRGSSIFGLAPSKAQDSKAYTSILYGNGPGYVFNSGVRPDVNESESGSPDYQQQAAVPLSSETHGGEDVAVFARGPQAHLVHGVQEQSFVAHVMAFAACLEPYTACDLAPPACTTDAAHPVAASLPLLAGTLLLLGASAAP
Sequence of Intestinal-type alkaline phosphatase (Mus musculus, UniProt P24822) (P24822 whole entry): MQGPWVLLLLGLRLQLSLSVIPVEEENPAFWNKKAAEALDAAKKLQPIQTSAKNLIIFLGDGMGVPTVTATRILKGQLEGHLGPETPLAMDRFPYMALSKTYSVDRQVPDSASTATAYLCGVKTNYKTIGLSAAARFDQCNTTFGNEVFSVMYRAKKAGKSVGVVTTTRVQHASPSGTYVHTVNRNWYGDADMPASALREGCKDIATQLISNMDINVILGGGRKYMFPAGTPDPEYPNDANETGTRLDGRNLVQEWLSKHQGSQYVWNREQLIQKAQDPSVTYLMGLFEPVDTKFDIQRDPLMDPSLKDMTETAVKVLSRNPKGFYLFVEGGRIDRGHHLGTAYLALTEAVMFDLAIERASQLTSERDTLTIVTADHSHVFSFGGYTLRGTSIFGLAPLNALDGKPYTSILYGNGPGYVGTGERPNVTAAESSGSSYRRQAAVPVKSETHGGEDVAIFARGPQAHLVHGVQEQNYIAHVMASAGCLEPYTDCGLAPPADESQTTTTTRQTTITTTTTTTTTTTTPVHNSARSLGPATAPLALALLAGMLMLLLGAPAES

EC50 [1]: > 100 µM (inactive)
SMILES: COC/C=C/C1=CC2=CC(=O)C(C)(OC(=O)c3cnc4ccccc4n3)C(=O)C2=CN1c1ccccc1 (stereo unspecified)

EC50 (Troponin, cardiac muscle): > 71.5 µM (inactive)
SMILES: COc1ccc(C(=O)Nn2cnc3scc(-c4cccs4)c3c2=O)c(O)c1

EC50 [2]: 18.5 µM (active)
EC50 [3]: 20.8 µM (active)
EC50 [4]: > 100 µM (inactive)
EC50 [5]: 15.1 µM (active)
SMILES: COc1ccc(OC)c(NC(=O)c2cc(-c3cc(C)ccc3O)n[nH]2)c1
